The text below walks through data of patent publication US6383733B1, “Methods of screening for pharmacologically active compounds for the treatment of tumour diseases” (Boehringer Ingelheim International GmbH, priority 1996, dated 2002).

Experiment [1] concerns EpRas cells. In words: EF conversion of EpRas cells in collagen type I gels. In kind it is cell-based, mouse. The protocol: (§1) Semiconfluent cultures of the cells to be analysed were trypsinised and adjusted to a final concentration of 4×10^4 cells per ml with ice-cold growth medium. Equal volumes of the cell suspension and an acidified solution of rat's tail collagen type 1 (Sigma) were mixed at 4° C., applied to 35 mm tissue culture dishes and incubated for 30 min at 37° C., in order to allow the solution to set to a gel. To allow the cells to form organotypical structures, the collagen gels were covered with a serum-free medium (MEGM; Promocel) containing bovine pituary extract (BPE), recombinant epidermal growth factor (EGF), hydrocortisone and insulin (in the concentrations recommended by the manufacturer). Where stated, 5 or 10% FCS or 5 ng/ml recombinant TGFβ1 (literature) were added. The medium covering the collagen gels was changed every two days. In order to neutralise the TGFβ1 produced by the cells or cell structures in the collagen gels a monoclonal antibody against TGFβ1 (Genzyme) or control antibody is used in concentrations of up to 50 μg/ml.
In order to identify the mechanism underlying the EF conversion, an experimental system was used with which EF conversion can be induced in vitro under defined and physiologically relevant conditions. For this purpose normal EpH4 cells or Ras-transformed subclones of these cells (Ep-Ras clones) were grown in reconstituted collagen type I gels, using serum-free medium. These conditions made it possible to add defined polypeptide growth factors and hormones which are known to be involved in the modulation of the epithelial phenotype. In gels of this kind, normal EpH4 cells developed into organ-like gland channels (tubuli) which frequently terminated in club-shaped hollow swellings. These structures looked very similar to the end buds of the developing mammary gland which are formed by primary breast epithelial cells both in collagen gels and also in vivo (FIG. 3A). These structures could be induced to produce milk proteins efficiently by the addition of lactogenic hormones. […]

The test system of experiment [2] is EpH4 cells. In words: In vitro morphogenesis and apoptosis of normal EpH4 cells in collagen gels. In kind it is cell-based, mouse. The protocol:
as §1
Since the TGFβ-super-family of polypeptide factors is involved primarily in morphogenetic processes during embryo development, the role of TGFβ1 in normal mammary gland development was also examined within the scope of the present invention. For this purpose normal breast epithelial cells of the cell line EpH4 were sown in serum-free collagen gels. Unlike in the experiments in Example 3, the serum needed during sowing for the collagen gel to set and washed out one day later was specially selected for a low content of TGFβ1. […] Thus, these structures bore some resemblance to the end buds of the developing mammary gland.

Experiment [3] deals with EpRas cells. Nature of the experiment: Chicken embryo heart invasion assay with EpRas cells. In kind it is cell-based, mouse. Particulars: 7 days co-cultivation with heart fragments. As for the experimental part:
This assay was carried out as described by Behrens et al., 1993. In order to be able to distinguish invasive donor cells clearly from chicken heart cells, the test cells were charged with a vital fluorescent dye before examination. For this the cells were incubated for 1 hour in a glucose-containing Hanks saline solution containing […] 5,6-carboxy-2′,7′-dichlorofluorescein diacetate-succinimidyl ester (Molecular Probes) and 0.2×10^−6 M Pluronic F127. In this way the fluorescent dye is covalently bound to intracellular proteins without affecting the viability or behaviour of the cells, determined by various differentiation and proliferation assays. The labelled cells were grown for 24 hours at high density, scraped off the plastic dish and brought into contact with pre-cultivated heart fragments of 9 day old chicken embryos on the surface of a soft agar layer. After 7 days' cultivation the fragments with the adhering cells were collected, flash-frozen in liquid nitrogen, frozen sections were prepared, fixed in methanol/acetone and the fluorescent cells were determined by epifluorescence microscopy (Axiophot, Zeiss).

Experiment [4] relates to EpRas cells. Nature of the experiment: Semi-quantitative PCR for TGFβ1-mRNA in cells grown in collagen gels. The following applies: EpRas clones, 5 ng/ml TGFβ1, five days in collagen gels. In kind it is cell-based, mouse. As for the experimental part: Total RNA from cells, grown on plastic, in collagen gels or from tumours, was isolated and processed for the semi-quantitative PCR. A TGFβ1-specific fragment was amplified by means of RT-PCR under semi-quantitative conditions, using -actin primers as the internal control, as described by Leonard et al., 1993. For this the DNA was denatured at 94° C. for 1 min, the primers were annealed at 65° C. for 1 min, and the polymerase reactions were continued at 72° C. for 1 min. The amplification was continued for 20 and 30 cycles. The TGFβ1-specific primers TGGACCGCAA CAACGCCATC TATCCAGAAAA CC (forward) and TGGAGCTGAAGCAATAGTTGGTATCCAGGGCT (reverse) (Clontech Inc.) were used. The results of the PCR were quantitatively evaluated on an Image Quant Phospho-Imager. The values were standardised on the control product (-actin) and subsequently correlated with the value from control-3T3-fibroblast.
Finally the amounts of TGFβ1-mRNA expressed in the cells and the TGFβ1 -protein released into the culture medium were determined. Three different EpRas clones as well as the parental EpH4 clone were grown for five days in collagen gels. […] At the protein level essentially the same results were obtained when serum-free culture supernatants were analysed by ELISA and Western blot (FIG. 7B).

The test system of experiment [5] is EpRas cells. Nature of the experiment: TGFβ1-charged Slow Release Pellets coinjected with EpRas cells in mice. In kind it is in vivo, mouse. Particulars: 4 days after subcutaneous injection. The protocol: (§2) In order to expose Ras-transformed breast epithelial cells to activated TGFβ1 very early in tumour development, TGFβ1 -charged Slow Release Elvax Pellets and either EpRas-epithelial cells or normal EpH4H cells were coinjected subcutaneously in mice. For control purposes pellets, charged only with BSA, were coinjected. The pellets were prepared and charged according to the manufacturer's instructions.
FIGS. 8E, F: Epithelial EpRas cells were injected subcutaneously into nude mice without (E) or together with 3-Elvax Slow Release Pellets charged with recombinant (active) TGFβ1 (F). Frozen sections obtained from 4 day old tumours were double-stained with antibodies against cytokeratin (red) and vimentin (green). What is noticeable is the dramatic migration of cells into the surrounding tissue induced in the vicinity of the TGFβ1 -releasing pellets (white circle).

Experiment [6] relates to EpH4 cells. Nature of the experiment: TGFβ1-charged Slow Release Pellets coinjected with EpH4 cells in mice. The following applies: mouse, in vivo. The protocol:
as §2

Experiment [7] concerns PAI-1 promoter-reporter gene construct in CT26 cells. In words: Transient PAI-1 promoter-reporter gene (3TP-lux) luciferase assay. In kind it is cell-based, mouse. Particulars: TGFβ added for 24 hours. As for the experimental part:
A PAI-1 promoter-reporter construct (reporter gene was luciferase; 3TP-lux, Wrana et al., 1992) was transfected by lipofectamine transfection (Gibco) according to the manufacturer's instructions into CT26 cells or CT26-TβRII-dn cells. 8 hours after transfection TGFβ1 was added for 24 hours, while the controls were left without TGFβ. Then cell lysates were prepared and the luciferase activity was measured in a Berthold Clinilumat as described by Wrana et al., 1992. In order to determine the transfection efficiency all the cells were cotransfected with an CMV-β-Gal reporter gene construct and the luciferase activities obtained were standardised by the β-Gal fluorescence intensity and by the protein concentration of the extract (Bradford).
CT26-control cells (CT26 controls) and 5 clones of CT26−TβRII-dn cells (CT26TβRII-dn 1-5) were transfected with a PAI-1 promoter-reporter gene construct (3TP-lux), the cells were stimulated with TGFβ (+TGFβ) or left unstimulated (−TGFβ) and the luciferase activity was measured in cell extracts. […]

Where only a bound is given, the exact number is not on record here.

As to “TGFβ1: Transforming Growth Factor β1, recombinant polypeptide factor added to cells or charged in Slow Release Elvax Pellets”, in the experiment on EpRas cells [1] (TGFβ1 5 ng/ml), the “apoptosis / EFC of Ha-Ras-containing cells” value is “not induced into apoptosis and undergo EFC without exception”. The “growth and phenotype of EpRas cells in collagen gel” value with EpRas cells [1] (TGFβ1 on its own, 5 ng/ml, serum-free collagen gel) is recorded as “causes EpRas cells to grow into invasive strings of cells similar to those induced by FCS”. Besides, in the experiment with EpRas cells [1] (compared with heregulin, scatter factor/HGF, acidic and basic FGF, PDGF), the “effect among growth factors added to EpRas cells in collagen gels” value was “the only factor which showed striking and long-lasting effects on EpRas cells”. In the experiment on EpH4 cells [2] (EpH4 cells in collagen gels), the “TGFβ1 concentration causing growth stop and apoptosis of normal epithelial cells” value was above 0.25 ng/mL. In the experiment with EpH4 cells [2] (TGFβ1 0.1 ng/ml until structures had formed, then washed out), the “structures formed by EpH4 cells after transient TGFβ1” value was “formed well-shaped tubular structures with typical lumina”. Further, the “structures formed by EpH4 cells” value in the experiment on EpH4 cells [2] (TGFβ1 0.1 ng/ml, serum selected for low TGFβ1 content) is “able to proliferate and form atypical structures which generally lacked lumina”. In addition, in the experiment on EpH4 cells [2] (collagen gels), the “induction of EF conversion in non-tumorigenic control cells” value is “not able to induce EF conversion”. Also, the “invasivity of EpRas cells converted by TGFβ1 treatment” value in the experiment on EpRas cells [3] is listed as “capable of migrating efficiently into the heart fragments”. Also, the “TGFβ1-mRNA produced by fibroblastoid cells induced by TGFβ1” value in the experiment on EpRas cells [4] was “produced quantities of TGFβ1-mRNA which were comparable with those of control fibroblasts”. Moreover, in the experiment with EpRas cells [5], the “phenotype and migration of EpRas cells close to a TGFβ1 pellet” value is “converted into irregularly shaped cells just 4 days after the injection and exhibited extensive migration into the surrounding host tissue”. Besides, the “phenotype of EpH4 cells close to TGFβ1 pellets” value with EpH4 cells [6] is recorded as “could not noticeably influence the phenotype of these non-tumorigenic cells”. The “reporter gene transcription in CT26 control cells” value in experiment [7] is “activates the reporter gene transcription to levels which are attained in the positive controls”.
